Several values for one entry are separate records, joined by “and”; a condition that tells them apart may be missing. Equal values may be shown once. Read-outs that look alike come from different tables or passages of the source.
Experiments:
Type in all cases: cell-based, human
[1] = test system: non-senescent control IMR90 ER:RAS cells; experiment: Nuclei count (Hoechst, high content imaging) senolytic assay, OIS model, non-senescent control cells; settings: Homo sapiens
Method in brief: (§1)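 We compared total nuclei counts between senescent and non-senescent IMR90 ER:RAS cells after 72 h compound exposure (10 nM–10 μM). Hoechst staining followed fixation and permeabilisation; ouabain served as senolytic positive control.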

[2] = test system: senescent IMR90 ER:RAS cells (4-OHT-induced); experiment: Nuclei count (Hoechst, high content imaging) senolytic assay, oncogene-induced senescence (OIS) model, senescent cells
Method in brief: as §1

[3] = test system: non-senescent control A549 cells; experiment: Nuclei count senolytic assay, TIS model, non-senescent control cells; settings: for % Cell Survival: control cells, single replicate
Method in brief: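 Nuclei counting by high-content imaging after 72 h compound treatment of senescent (etoposide-induced) versus control A549 cells. Top dose 10 μM final, lowest 10 nM.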

## CO[C@H]1C[C@H](O[C@H]2CC[C@@]3(C)[C@H](CC[C@@H]4[C@@H]3CC[C@]3(C)[C@@H](C5=CC(=O)OC5)[C@@H](OC(C)=O)C[C@]43O)C2)O[C@@H](C)[C@@H]1O [Oleandrin, oleandrin]
[1]; IMR-90, 72 h, Control, log (dose) [M] -5, 72 h, mean n=3 (Fig 3C), read-out: Mean % Cell Survival
  viability at 10 µM: 15%
[1]; IMR-90, 72 h, Control, log (dose) [M] -5.33, 72 h, mean n=3 (Fig 3C), read-out: Mean % Cell Survival
  viability at 4.677 µM: 20%
[1]; IMR-90, 72 h, Control, log (dose) [M] -5.66, 72 h, mean n=3 (Fig 3C), read-out: Mean % Cell Survival
  viability at 2.188 µM: 20.5%
[1]; IMR-90, 72 h, Control, log (dose) [M] -6, 72 h, mean n=3 (Fig 3C), read-out: Mean % Cell Survival
  viability at 1 µM: 25.6%
[1]; IMR-90, 72 h, Control, log (dose) [M] -6.33, 72 h, mean n=3 (Fig 3C), read-out: Mean % Cell Survival
  viability at 0.4677 µM: 24.8%
[1]; IMR-90, 72 h, Control, log (dose) [M] -6.66, 72 h, mean n=3 (Fig 3C), read-out: Mean % Cell Survival
  viability at 0.2188 µM: 24.3%
[1]; IMR-90, 72 h, Control, log (dose) [M] -7, 72 h, mean n=3 (Fig 3C), read-out: Mean % Cell Survival
  viability at 0.1 µM: 34.7%
[1]; IMR-90, 72 h, Control, log (dose) [M] -7.33, 72 h, mean n=3 (Fig 3C), read-out: Mean % Cell Survival
  viability at 0.04677 µM: 53.1%
[1]; IMR-90, 72 h, Control, log (dose) [M] -7.66, 72 h, mean n=3 (Fig 3C), read-out: Mean % Cell Survival
  viability at 0.02188 µM: 80.8%
[1]; IMR-90, 72 h, Control, log (dose) [M] -8, 72 h, mean n=3 (Fig 3C), read-out: Mean % Cell Survival
  viability at 0.01 µM: 92.8%
[1]; IMR-90, control, log (dose) [M] -5.33, individual replicates (Fig 3D), read-out: % Cell Survival
  viability at 4.677 µM: 20.6%
[1]; IMR-90, control, log (dose) [M] -5.66, individual replicates (Fig 3D), read-out: % Cell Survival
  viability at 2.188 µM: 18.9%
[1]; IMR-90, control, log (dose) [M] -6, individual replicates (Fig 3D), read-out: % Cell Survival
  viability at 1 µM: 22.9%
[1]; IMR-90, control, log (dose) [M] -6.33, individual replicates (Fig 3D), read-out: % Cell Survival
  viability at 0.4677 µM: 19.9%
[1]; IMR-90, control, log (dose) [M] -6.66, individual replicates (Fig 3D), read-out: % Cell Survival
  viability at 0.2188 µM: 22.4%
[1]; IMR-90, control, log (dose) [M] -7, individual replicates (Fig 3D), read-out: % Cell Survival
  viability at 0.1 µM: 31.3%
[1]; IMR-90, control, log (dose) [M] -7.33, individual replicates (Fig 3D), read-out: % Cell Survival
  viability at 0.04677 µM: 54.6%
[1]; IMR-90, control, log (dose) [M] -7.66, individual replicates (Fig 3D), read-out: % Cell Survival
  viability at 0.02188 µM: 71%
[1]; IMR-90, control, log (dose) [M] -8, individual replicates (Fig 3D), read-out: % Cell Survival
  viability at 0.01 µM: 82.4%
[1]; IMR-90, OIS model, non-senescent IMR90 ER:RAS, nuclei count, 72 h
  IC50: 0.085 µM
[2]; Homo sapiens, IMR-90, 72 h, Senescent, log (dose) [M] -5, 72 h, mean n=3 (Fig 3C), read-out: Mean % Cell Survival
  viability at 10 µM: 2.6%
[2]; Homo sapiens, IMR-90, 72 h, Senescent, log (dose) [M] -5.33, 72 h, mean n=3 (Fig 3C), read-out: Mean % Cell Survival
  viability at 4.677 µM: 4.06%
[2]; Homo sapiens, IMR-90, 72 h, Senescent, log (dose) [M] -5.66, 72 h, mean n=3 (Fig 3C), read-out: Mean % Cell Survival
  viability at 2.188 µM: 5.74%
[2]; Homo sapiens, IMR-90, 72 h, Senescent, log (dose) [M] -6, 72 h, mean n=3 (Fig 3C), read-out: Mean % Cell Survival
  viability at 1 µM: 4.49%
[2]; Homo sapiens, IMR-90, 72 h, Senescent, log (dose) [M] -6.33, 72 h, mean n=3 (Fig 3C), read-out: Mean % Cell Survival
  viability at 0.4677 µM: 5.02%
[2]; Homo sapiens, IMR-90, 72 h, Senescent, log (dose) [M] -6.66, 72 h, mean n=3 (Fig 3C), read-out: Mean % Cell Survival
  viability at 0.2188 µM: 3.64%
[2]; Homo sapiens, IMR-90, 72 h, Senescent, log (dose) [M] -7, 72 h, mean n=3 (Fig 3C), read-out: Mean % Cell Survival
  viability at 0.1 µM: 3.83%
[2]; Homo sapiens, IMR-90, 72 h, Senescent, log (dose) [M] -7.33, 72 h, mean n=3 (Fig 3C), read-out: Mean % Cell Survival
  viability at 0.04677 µM: 6.59%
[2]; Homo sapiens, IMR-90, 72 h, Senescent, log (dose) [M] -7.66, 72 h, mean n=3 (Fig 3C), read-out: Mean % Cell Survival
  viability at 0.02188 µM: 13.4%
[2]; Homo sapiens, IMR-90, 72 h, Senescent, log (dose) [M] -8, 72 h, mean n=3 (Fig 3C), read-out: Mean % Cell Survival
  viability at 0.01 µM: 87.9%
[2]; Homo sapiens, IMR-90, senescence, log (dose) [M] -5, individual replicates (Fig 3D), read-out: % Cell Survival
  viability at 10 µM: 3.12%
[2]; Homo sapiens, IMR-90, senescence, log (dose) [M] -5.33, individual replicates (Fig 3D), read-out: % Cell Survival
  viability at 4.677 µM: 4.77%
[2]; Homo sapiens, IMR-90, senescence, log (dose) [M] -5.66, individual replicates (Fig 3D), read-out: % Cell Survival
  viability at 2.188 µM: 7.52%
[2]; Homo sapiens, IMR-90, senescence, log (dose) [M] -6, individual replicates (Fig 3D), read-out: % Cell Survival
  viability at 1 µM: 5.5%
[2]; Homo sapiens, IMR-90, senescence, log (dose) [M] -6.33, individual replicates (Fig 3D), read-out: % Cell Survival
  viability at 0.4677 µM: 4.4%
[2]; Homo sapiens, IMR-90, senescence, log (dose) [M] -6.66, individual replicates (Fig 3D), read-out: % Cell Survival
  viability at 0.2188 µM: 4.04%
[2]; Homo sapiens, IMR-90, senescence, log (dose) [M] -7, individual replicates (Fig 3D), read-out: % Cell Survival
  viability at 0.1 µM: 4.95%
[2]; Homo sapiens, IMR-90, senescence, log (dose) [M] -7.66, individual replicates (Fig 3D), read-out: % Cell Survival
  viability at 0.02188 µM: 12.3%
[2]; Homo sapiens, IMR-90, OIS model, 4-OHT-induced IMR90 ER:RAS, nuclei count, 72 h
  IC50: 0.014 µM
[2]; OIS IMR90 ER:RAS, Hoechst nuclei count, marginal effect on normal cells
  dose showing the clearest / optimal senolytic effect: 21.5 nM
[2]; experimental screen, OIS IMR90 ER:RAS
  senolytic activity (in words): clear senolytic action
[2]; ratio between the IC50 of control cells and the IC50 of senescent cells, OIS IMR90 ER:RAS
  senolytic index (SI): 5.8
[3]; Homo sapiens, A549, log (dose) [M] -5, Control cells, mean, read-out: Mean % Cell Survival
  viability at 10 µM: 1.02%
[3]; Homo sapiens, A549, log (dose) [M] -5.33, Control cells, mean, read-out: Mean % Cell Survival
  viability at 4.68 µM: 1.71%
[3]; Homo sapiens, A549, log (dose) [M] -5.66, Control cells, mean, read-out: Mean % Cell Survival
  viability at 2.19 µM: 1.34%
[3]; Homo sapiens, A549, log (dose) [M] -6, Control cells, mean, read-out: Mean % Cell Survival
  viability at 1 µM: 1.19%
[3]; Homo sapiens, A549, log (dose) [M] -6.33, Control cells, mean, read-out: Mean % Cell Survival
  viability at 0.468 µM: 1.55%
[3]; Homo sapiens, A549, log (dose) [M] -6.66, Control cells, mean, read-out: Mean % Cell Survival
  viability at 0.219 µM: 2.98%
[3]; Homo sapiens, A549, log (dose) [M] -7, Control cells, mean, read-out: Mean % Cell Survival
  viability at 0.1 µM: 6.37%
[3]; Homo sapiens, A549, log (dose) [M] -7.33, Control cells, mean, read-out: Mean % Cell Survival
  viability at 0.0468 µM: 4.07%
[3]; Homo sapiens, A549, log (dose) [M] -7.66, Control cells, mean, read-out: Mean % Cell Survival
  viability at 0.0219 µM: 25.8%
[3]; Homo sapiens, A549, log (dose) [M] -8, Control cells, mean, read-out: Mean % Cell Survival
  viability at 0.01 µM: 34.2%
[3]; Homo sapiens, TIS model, non-senescent A549, nuclei count, 72 h
  IC50: 0.0195 µM
[3]; log (dose) [M] -5
  % Cell Survival: 0.2886% and 2.786% and 0%
[3]; log (dose) [M] -5.33
  % Cell Survival: 1.948% and 1.5% and 1.695%
[3]; log (dose) [M] -5.66
  % Cell Survival: 1.659% and 1.071% and 1.304%
[3]; log (dose) [M] -6
  % Cell Survival: 0% and 2.071% and 1.499%
[3]; log (dose) [M] -6.33
  % Cell Survival: 1.371% and 2.429% and 0.8475%
[3]; log (dose) [M] -6.66
  % Cell Survival: 4.113% and 2.929% and 1.89%
[3]; log (dose) [M] -7
  % Cell Survival: 5.267% and 9.857% and 3.977%
[3]; log (dose) [M] -7.33
  % Cell Survival: 0% and 0.07143% and 12.1252%
[3]; log (dose) [M] -7.66
  % Cell Survival: 49.3506% and 28.0313%
[3]; log (dose) [M] -8
  % Cell Survival: 102.742%

Reference: publication PMC10257182, “Discovery of senolytics using machine learning” (Nature Communications, 2023)
